Test results taken from patent US20100120703A1, “COMPOSITIONS AND METHODS FOR TREATING CANCER” (priority 2007, published 2010).

Tests used:
HepG2 cells [1] = experiment: Neutral red cell viability assay; type: cell-based; conditions: Homo sapiens
Text: (§1) The neutral red (NR) cytotoxicity assay is a chemosensitivity assay for measuring cell survival/viability, based on the ability of viable cells to incorporate and bind neutral red, a supravital dye. NR is a weak cationic dye that readily penetrates cell membranes by non-ionic diffusion, accumulating intracellularly in lysosomes, where it binds with anionic sites in the lysosomal matrix. Alterations of the cell surface or the sensitive lysosomal membrane lead to lysosomal fragility and other changes that gradually become irreversible. Such changes brought about by the action of xenobiotics result in a decreased uptake and binding of NR. It is thus possible to distinguish between viable, damaged, or dead cells. (Babich, H et al, 1990)
(§2) Three different cell lines HepG2, WRL-68 and Clone 9 cell lines were used in the experiment. HepG2 is a human hepatoblastoma cell line. It is a well known cell model in anti-HCC studies (Alshatwi A A, et al, 2006). WRL-68 is a human normal liver embryo cell line that has a morphologic structure similar to hepatocytes and hepatic primary cultures (Gutierrez-Ruiz, et al, 1994). This cell line was used as the control. Clone 9 is the rat Sprague Dawley (SD) liver normal cell line. In the in vivo studies, sinigrin (SIN) would be applied to the SD rat animal model. The employment of this cell line in the cell viability study was to test if SIN would be toxic in the rat animal model.
HepG2, WRL-68 and Clone 9 cells were grown in complete culture medium (RPMI or DMEM), trypsinized and washed. Ten thousand cells of each cell type were seeded in 96-well plates. After 24 hours of pre-incubation, cells were treated with different concentrations of SIN and incubated for 72 hours. After incubation, cells were harvested and washed twice with 1×PBS buffer. Fifty microliters of Neutral Red solution were added to each well. The whole plate was placed into an incubator at 37° C. with 5% CO2. After incubation for 1 hour, the plate was washed twice with 1×PBS buffer, and completely dried in a 60° C. oven overnight. […] The color was measured at OD540nm.

HepG2 cells [2] = experiment: Cell cycle analysis by flow cytometry (PI); type: cell-based, human
Method: Flow Cytometery is a rapid and quantitative method for measuring certain physical and chemical characteristics of cells or particles as they travel in suspension through a sensor. When the cell is labeled with propidium iodide (PI), the DNA content can be measured which is used to determine the stage of the cell cycle. When cell cycles are obtained, a cell cycle map can be recorded.
HepG2 cells were trypsinized, washed and seeded into […] culture plates in complete RPMI medium. After 24 hours of pre-incubation, different concentrations (250 μM and 500 μM) of SIN were added to the culture plates. The complete RPMI medium was added to one plate containing control cells. After different periods of incubation with SIN, cells were harvested, the medium was removed from the culture plate and the plate was washed twice with 2 ml of 1×PBS buffer. All of the solutions were collected, and the cells were trypsinized and collected. The whole solution was centrifuged at 1,000 rpm for 3 minutes. The supernatant was removed and the cell pellet was resuspended in 1 ml 1×PBS buffer for washing. […]
The cell pellet was resuspended in 1 ml of 70% ethanol and 0.1 ml of 1×PBS buffer. […] DNA content was analyzed using an FACScan Flow cytometry with sufficient Sheath Fluid. The results were analyzed by the FCS express software produced by the De Novo Software Company.

Clone 9 cells = experiment: Neutral red cell viability assay; type: cell-based, rat; conditions: SIN up to 1,000 μM, 72 hours
Text: as §1
as §2, with “In the in vivo studies, sinigrin (SIN) would be applied to the SD rat animal model. The employment of this cell line in the cell viability study was to test if SIN would be toxic in the rat animal model.” left out
(§3) HepG2, WRL-68 and Clone 9 cells were grown in complete culture medium (RPMI or DMEM), trypsinized and washed. […] The color was measured at OD540nm.

WRL-68 cells = experiment: Neutral red cell viability assay; type: cell-based, human; conditions: SIN up to 1,000 μM, 72 hours
Text: as §1
as §2, with “In the in vivo studies, sinigrin (SIN) would be applied to the SD rat animal model. The employment of this cell line in the cell viability study was to test if SIN would be toxic in the rat animal model.” left out
as §3

[3] = HepG2, 72 h, read-out: viability of HepG2 cells

C=CC/C(=N/OS(=O)(=O)[O-])S[C@@H]1OC(CO)[C@@H](O)C(O)C1O.[K+] (stereo partly shown) [SIN, sinigrin]
viability at 25 µM (HepG2 cells [1]; [3]): ~70% | viability at 1000 µM (HepG2 cells [1]; [3]): ~35% | IC50 (HepG2 cells [1]; HepG2, 72 hours, neutral red): < 250 µM | cells arrested in sub G1 phase vs untreated cells (HepG2 cells [2]; 0.5 mM SIN, 96 hours): the increase of the cells arrested in sub G1 phase becomes very obvious | cell cycle effect in HepG2 cells (HepG2 cells [2]; SIN treatment, 24-96 hours): G0/G1 phase arrest | cell viability of Clone 9 cells (healthy liver cells) (Clone 9 cells): no decrease in cell viability was observed | cell viability of WRL-68 cells (healthy liver cells) (WRL-68 cells): no decrease in cell viability was observed
